We go through four molecules from US20070225292A1, “Therapeutic Compounds: Pyridine as Scaffold” (priority 2004, published 2007).

Experiment [1] addresses T1, Human CB1 receptor (Homo sapiens, UniProt P21554).
T1 construct: purchased Receptor Biology
The experiment is described as follows: hCB1 GTPγS binding. The experiment is classed as biochemical. To be noted: human CB1 membranes, GTPg35S binding; for Emax: maximal stimulated binding with 10 μM Win 55,212-2; for EC50: read-out: EC5O (hCB1). The method, then:
Human CB1 receptor from Receptor Biology (hCB1) or human CB2 receptor membranes (BioSignal) are thawed at 37° C., passed 3 times through a 25-gauge blunt-end needle and diluted in the GTPγS binding buffer (50 mM Hepes, 20 mM NaOH, 100 mM NaCl, 1 mM EDTA, 5 mM MgCl2, pH 7.4, 0.1% BSA). The EC50 and Emax of the compounds of the invention are evaluated from 10-point dose-response curves done in 300 μl with the appropriate amount of membrane protein and 100000-130000 dpm of GTPg^35S per well (0.11-0.14 nM). The basal and maximal stimulated binding is determined in absence and presence of 1 μM (hCB2) or 10 μM (hCB1) Win 55,212-2 respectively. The membranes are pre-incubated for 5 minutes with 56.25 μM (hCB2) or […] (hCB1) GDP prior to distribution in plates (15 μM (hCB2) or 30 μM (hCB1) GDP final). The plates are vortexed and incubated for 60 minutes at room temperature, filtered on Unifilters GF/B (presoaked in water) with the Tomtec or Packard harvester using 3 ml of wash buffer (50 mM Tris, 5 mM MgCl2, 50 mM NaCl, pH 7.0). The filters are dried for 1 hour at 55° C. The radioactivity (cpm) is counted in a TopCount (Packard) after adding 65 μl/well of MS-20 scintillation liquid. Antagonist reversal studies are done in the same way except that (a) an agonist dose-response curve is done in the presence of a constant concentration of antagonist, or (b) an antagonist dose-response curve is done in the presence of a constant concentration of agonist.
In general terms: GTPγS resists hydrolysis and so accumulates on activated G proteins.

Experiment [2] addresses T1, Human CB1 receptor. The experiment is described as follows: hCB1 receptor binding (3H-CP55,940 displacement). To be noted: human CB1 membranes, Ki=IC50/(1+[rad]/Kd). The method, then:
Human CB1 receptor from Receptor Biology (hCB1) or human CB2 receptor from BioSignal (hCB2) membranes are thawed at 37° C., passed 3 times through a 25-gauge blunt-end needle, diluted in the cannabinoid binding buffer (50 mM Tris, 2.5 mM EDTA, 5 mM MgCl2, and 0.5 mg/mL BSA fatty acid free, pH 7.4) and aliquots containing the appropriate amount of protein are distributed in 96-well plates. The IC50 of the compounds of the invention at hCB1 and hCB2 are evaluated from 10-point dose-response curves done with ^3H-CP55,940 at 20000 to 25000 dpm per well (0.17-0.21 nM) in a final volume of 300 μl. The total and non-specific binding are determined in the absence and presence of 0.2 μM of HU210 respectively. The plates are vortexed and incubated for 60 minutes at room temperature, filtered through Unifilters GF/B (presoaked in 0.1% polyethyleneimine) with the Tomtec or Packard harvester using 3 mL of wash buffer (50 mM Tris, 5 mM MgCl2, 0.5 mg BSA pH 7.0). The filters are dried for 1 hour at 55° C. The radioactivity (cpm) is counted in a TopCount (Packard) after adding 65 μl/well of MS-20 scintillation liquid.
Based on the above assays, the dissociation constant (Ki) for a particular compound of the invention towards a particular receptor is determined using the following equation: Ki=IC50/(1+[rad]/Kd),
Wherein IC50 is the concentration of the compound of the invention at which 50% displacement has been observed;
[rad] is a standard or reference radioactive ligand concentration at that moment; and
Kd is the dissociation constant of the radioactive ligand towards the particular receptor.

T1 sequence (P21554 whole entry): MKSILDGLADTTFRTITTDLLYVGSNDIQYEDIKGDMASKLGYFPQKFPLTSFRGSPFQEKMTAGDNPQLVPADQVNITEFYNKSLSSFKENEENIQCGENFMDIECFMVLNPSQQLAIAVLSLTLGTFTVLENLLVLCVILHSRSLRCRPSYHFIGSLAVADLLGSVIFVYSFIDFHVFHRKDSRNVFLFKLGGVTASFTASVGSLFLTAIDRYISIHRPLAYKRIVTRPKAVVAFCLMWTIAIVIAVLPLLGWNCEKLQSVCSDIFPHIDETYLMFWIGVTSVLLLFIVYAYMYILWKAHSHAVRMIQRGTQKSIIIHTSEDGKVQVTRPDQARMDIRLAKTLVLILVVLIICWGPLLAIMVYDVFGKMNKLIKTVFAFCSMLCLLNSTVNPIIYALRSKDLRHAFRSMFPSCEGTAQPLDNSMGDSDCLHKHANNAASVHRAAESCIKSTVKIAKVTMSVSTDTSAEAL

On to `O=C(NCC1CCCC1)c1ncccc1NC(=O)c1cccc2ccccc12` [Example 13, N-(Cyclopentylmethyl)-3-[(1-naphthalenylcarbonyl)amino]-2-pyridinecarboxamide], for which, on Human CB1 receptor [1], the Emax was 105% and the EC50 was found to be 46 nM. At Human CB1 receptor [2], affinity was put at a Ki of 12 nM.
Regarding `O=C(NCC1CCOCC1)c1nccnc1NC(=O)c1cccc2ccccc12` [Example 43, 3-(1-Naphthoylamino)-N-(tetrahydro-2H-pyran-4-ylmethyl)pyrazine-2-carboxamide], at Human CB1 receptor [1], the Emax is 112% and the EC50 was determined as 907 nM. This molecule displayed a Ki on Human CB1 receptor [2] of 181 nM.
The like results for `Cc1ccc(C(=O)Nc2cccnc2C(=O)NCc2ccccn2)c2ccccc12` [Example 80, 3-(4-Methyl 1-naphthoylamino)-N-(pyridin-2-ylmethyl)pyridine-2-carboxamide] were, in that order, 75%, 1230 nM and 221 nM.
The like results for `O=C(NCC1CCCCC1)c1ncccc1NC(=O)c1ccc(N2CCC2)c2ccccc12` [Example 171, 3-[(4-Azetidin-1-yl-1-naphthoyl)amino]-N-(cyclohexylmethyl)pyridine-2-carboxamide] were, in that order, 71%, 217 nM and 57 nM.

In general, Emax refers to the greatest response seen or fitted, relative to the assay's reference. As a reminder, the Ki is a dissociation constant, usually derived from enzyme kinetics or from competition with a known ligand. The low end stands for a stronger hold on the target, the high end for a looser hold on the target.
